Measurements reported in US20250057814A1, “ENDODONTIC BIOFILM-ERADICATION TECHNIQUE UTILIZING A DUAL-SYSTEM INTRACANAL MEDICATION” (priority 2023, published 2025).
Marks after values point to notes of the source that are not given here.

How the values were obtained:
P. pseudomallei = details: reference 208, cited from earlier work
endodontic lesions = experiment: Intracanal medication of patients with large endodontic lesions, healing evaluated by CBCT and radiograph; assay type: in vivo; details: 12 months post obturation
E. coli ATCC 25922 = details: reference 26, cited from earlier work
S. aureus NCTC 8325-4 = details: reference 215, cited from earlier work

CC(C)(O/N=C(\C(=O)N[C@@H]1C(=O)N2C(C(=O)[O-])=C(C[n+]3ccccc3)CS[C@H]12)c1csc(N)n1)C(=O)O [Ceftazidime]
Concentration effective against biofilm phenotype (P. pseudomallei; biofilm, concentration required for ~99% reduction): 800^c μg/ml | MBC of planktonic phenotype (P. pseudomallei; planktonic P. pseudomallei): 8 (MBC) μg/ml

[Ca+2].[OH-].[OH-] [calcium hydroxide]
change in size of lesion, Example Case No. 3 (endodontic lesions; tooth 10): no change in the size of lesion | lesion healing, Example Case No. 3 side-by-side comparison (endodontic lesions; four weeks of intra-canal medication, teeth 7 and 8 formula, tooth 10 calcium hydroxide): non-healing of the smaller lesion

CC1(C)S[C@@H]2[C@H](NC(=O)[C@H](N)c3ccccc3)C(=O)N2[C@H]1C(=O)O [Ampicillin]
Concentration effective against biofilm phenotype (E. coli ATCC 25922; biofilm, minimal biofilm eradication concentration): 512^b μg/ml | MIC of planktonic phenotype (E. coli ATCC 25922; planktonic E. coli ATCC 25922): 2 (MIC) μg/ml

CN[C@H](CC(C)C)C(=O)N[C@H]1C(=O)N[C@@H](CC(N)=O)C(=O)N[C@H]2C(=O)N[C@H]3C(=O)N[C@H](C(=O)N[C@H](C(=O)O)c4cc(O)cc(O)c4-c4cc3ccc4O)[C@H](O)c3ccc(c(Cl)c3)Oc3cc2cc(c3O[C@@H]2O[C@H](CO)[C@@H](O)[C@H](O)[C@H]2O[C@H]2C[C@](C)(N)[C@H](O)[C@H](C)O2)Oc2ccc(cc2Cl)[C@H]1O [Vancomycin]
Concentration effective against biofilm phenotype (S. aureus NCTC 8325-4; biofilm, concentration required for 99% reduction): 20^a μg/ml | MBC of planktonic phenotype (S. aureus NCTC 8325-4; planktonic S. aureus NCTC 8325-4): 2 (MBC) μg/ml
